{
  "source": "patent US20210283151A1",
  "about": "“USE OF COMPOUND IN DRUG FOR PREVENTING, TREATING, OR ALLEVIATING PAIN” (ASCENTAWITS PHARMACEUTICALS, LTD., priority 2018, published 2021)",
  "key": {"prostaglandin F2": {"tested_on": "prostaglandin F2", "assay": "Serum prostaglandin F2 by ELISA after single intravenous infusion to cynomolgus monkeys", "assay_type": "in vivo, cynomolgus monkey", "settings": "for The measured concentration of prostaglandin F2: 1 mg/kg intravenous infusion; for Effect on prostaglandin F2 content (in words): cynomolgus monkeys, after administration (0.58 mg/kg as printed in b199), fluctuating increase at 24 h; for The measured concentration of prostaglandin F2, Mean: mean of 3 animals, before administration 1088.09", "procedure": "(§1) An experiment with three cynomolgus monkeys was performed according to the table below.\n(§2) Four male cynomolgus monkeys were purchased from Guangxi Xiongsen Primate Development and Experiment Co., Ltd., and all of them were healthy cynomolgus monkeys that had passed the physical examination and have no abnormalities. Among them, three cynomolgus monkeys were used in the experiment of administration and the remaining one was used for preparing blank plasma.\n(§3) Before administration, and 6, 24, 48 and 72 hours after the start of administration, 1 mL of blood was collected from the femoral vein or other suitable vein, and placed in a blood collection tube without anticoagulant. After collected, the blood sample was placed on ice and allowed to stand for 30-60 minutes before being centrifuged at 3,500 rpm for 10 minutes at 2-8° C. to separate the serum. The collected serum was stored at −80° C. before being analyzed.\n(§4) Prostaglandins E2 and F2 in serum samples were analyzed by conventional ELISA methods. The measurement results are as follows.\n(§5) The concentrations of prostaglandins E2 and F2 in the serum after single administration to cynomolgus monkeys by intravenous infusion"}, "prostaglandin E2": {"tested_on": "prostaglandin E2", "assay": "Serum prostaglandin E2 by ELISA after single intravenous infusion to cynomolgus monkeys", "assay_type": "in vivo, cynomolgus monkey", "settings": "for The measured concentration of prostaglandin E2: 1 mg/kg intravenous infusion; for The measured concentration of prostaglandin E2, Mean: mean of 3 animals, before administration 469.60", "procedure": "as §1, §2, §3, §4, §5"}, "AKR1C3": {"target": "T1, AKR1C3 (Homo sapiens, UniProt P42330)", "T1 sequence (P42330 1-323)": "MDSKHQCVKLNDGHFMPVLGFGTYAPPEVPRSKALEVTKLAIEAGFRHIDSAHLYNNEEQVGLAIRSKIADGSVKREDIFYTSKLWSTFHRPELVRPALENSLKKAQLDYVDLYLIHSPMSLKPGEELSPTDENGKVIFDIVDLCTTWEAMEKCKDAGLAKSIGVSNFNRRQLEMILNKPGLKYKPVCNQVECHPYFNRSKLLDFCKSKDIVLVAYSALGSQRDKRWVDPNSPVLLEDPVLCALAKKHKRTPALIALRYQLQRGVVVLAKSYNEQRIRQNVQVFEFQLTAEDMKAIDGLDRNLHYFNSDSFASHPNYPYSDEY", "assay": "In vitro AKR1C3 activity: production of reduced progesterone (20α-dihydroprogesterone) by LC/MS", "assay_type": "biochemical", "settings": "reaction 30 min; for AKR1C3 activity % / activity at 5 µM: negative control = 100", "procedure": "Experimental apparatus: Waters Acquity I Class UPLC Ultra Performance Liquid Chromatograph equipped with a Xevo G2-XS Q Tof HRMS Quadrupole Time-of-flight High-Resolution Mass Spectrometer\n1. PBS phosphate buffered saline solution,\n2. PBS phosphate buffered saline solution of 20 mM NADPH\n3. PBS phosphate buffered saline solution of 250 μg/mL AKR1C3\n5. 50% MeOH/H2O solution of 250 μM progesterone\n6. 100% acetonitrile solution of 1 μg/mL propranolol\nIn step 1, the reaction mixtures were prepared into Eppendorf tubes in quadruplicate (n=4) according to the table below and mixed gently.\nIn step 2, the above mixtures were pre-incubated in duplicate at 37° C. for 30 minutes and 60 minutes.\nIn step 3, another 10 μL of PBS phosphate buffered saline solution of 20 mM NADPH and 2 μL of 50% MeOH/H2O solution of 250 μM progesterone were added to each Eppendorf tube and mixed gently.\nIn step 4, 50 μL of the mixture in the above step was immediately transferred to 100 μL of 100% acetonitrile solution of 1 μg/mL propranolol (internal standard (IS)).\nIn step 5, the remaining samples were incubated at 37° C. for 30 minutes, and 100 μL of 100% acetonitrile solution of 1 μg/mL propranolol (internal standard (IS)) was added.\nIn step 6, 100 μL of reagent water was added to all the samples, vortexed at 1,100 rpm for 5 minutes, and centrifuged at 15,000 rpm for 10 minutes at room temperature.\nIn step 7, all the samples were loaded on LC/MS to determine the content of reduced progesterone, namely 20α-dihydroprogesterone.\nThe test conditions for the LC-MS apparatus are shown below\nIn step 9, the reduced progesterone (20α-dihydroprogesterone) is calculated: the peak area of the reduced progesterone, namely 20α-dihydroprogesterone and propranolol, in each sample was determined by LC/MS. The peak area ratios of reduced progesterone to propranolol (i.e., the ratios in the above table) were calculated, and when the time is 0 the ratio is set to 0%.\nAKR1C3 activity (%)=[(the amount of reduced progesterone after normalization of the sample) 30 min−(the amount of reduced progesterone after normalization of the sample) 0 min]/[(the amount of reduced progesterone after normalization of the negative control group) 30 min−(the amount of reduced progesterone after normalization of the negative control group) 0 min]*100.\nThe AKR1C3 activity results in the above table were calculated according to the above formula."}, "[1]": {"settings": "animal 101, 6 h after start of administration"}, "[2]": {"settings": "animal 101, 24 h after start of administration"}, "[3]": {"settings": "animal 101, 48 h after start of administration"}, "[4]": {"settings": "animal 101, 72 h after start of administration"}, "[5]": {"settings": "animal 102, 6 h after start of administration"}, "[6]": {"settings": "animal 102, 24 h after start of administration"}, "[7]": {"settings": "animal 102, 48 h after start of administration"}, "[8]": {"settings": "animal 102, 72 h after start of administration"}, "[9]": {"settings": "animal 103, 6 h after start of administration"}, "[10]": {"settings": "animal 103, 24 h after start of administration"}, "[11]": {"settings": "animal 103, 48 h after start of administration"}, "[12]": {"settings": "animal 103, 72 h after start of administration"}, "[13]": {"settings": "5 μM AST-3424, pre-incubation 30 min at 37° C."}, "[14]": {"settings": "5 μM AST-3424, pre-incubation 60 min at 37° C."}},
  "data": [
    {"smiles": "C[C@H](OP(=O)(N1CC1)N1CC1)c1ccc([N+](=O)[O-])c(Oc2cccc(C(=O)N(C)C)c2)c1", "note": "[AST-3424]", "values": [
      {"measurement": "The measured concentration of prostaglandin F2", "setting": "prostaglandin F2; [1]", "result": 165.32, "unit": "pg/mL"},
      {"measurement": "The measured concentration of prostaglandin F2", "setting": "prostaglandin F2; [2]", "result": 816.63, "unit": "pg/mL"},
      {"measurement": "The measured concentration of prostaglandin F2", "setting": "prostaglandin F2; [3]", "result": 183.73, "unit": "pg/mL"},
      {"measurement": "The measured concentration of prostaglandin F2", "setting": "prostaglandin F2; [4]", "result": 441.76, "unit": "pg/mL"},
      {"measurement": "The measured concentration of prostaglandin F2", "setting": "prostaglandin F2; [5]", "result": 260.80, "unit": "pg/mL"},
      {"measurement": "The measured concentration of prostaglandin F2", "setting": "prostaglandin F2; [6]", "result": 3460.25, "unit": "pg/mL"},
      {"measurement": "The measured concentration of prostaglandin F2", "setting": "prostaglandin F2; [7]", "result": 216.12, "unit": "pg/mL"},
      {"measurement": "The measured concentration of prostaglandin F2", "setting": "prostaglandin F2; [8]", "result": 968.01, "unit": "pg/mL"},
      {"measurement": "The measured concentration of prostaglandin F2", "setting": "prostaglandin F2; [9]", "result": 300.65, "unit": "pg/mL"},
      {"measurement": "The measured concentration of prostaglandin F2", "setting": "prostaglandin F2; [10]", "result": 4208.19, "unit": "pg/mL"},
      {"measurement": "The measured concentration of prostaglandin F2", "setting": "prostaglandin F2; [11]", "result": 541.05, "unit": "pg/mL"},
      {"measurement": "The measured concentration of prostaglandin F2", "setting": "prostaglandin F2; [12]", "result": 1369.67, "unit": "pg/mL"},
      {"measurement": "Effect on prostaglandin F2 content (in words)", "setting": "prostaglandin F2; 0.58 mg/kg", "result": "greatly reduce the content of PGF2"},
      {"measurement": "Effect on prostaglandin F2 content (in words)", "setting": "prostaglandin F2; listed as AST3424, 0.58 mg/kg", "result": "decreased"},
      {"measurement": "The measured concentration of prostaglandin F2, Mean", "setting": "prostaglandin F2; 6 h", "result": 242.26, "unit": "pg/mL"},
      {"measurement": "The measured concentration of prostaglandin F2, Mean", "setting": "prostaglandin F2; 24 h", "result": 2828.36, "unit": "pg/mL"},
      {"measurement": "The measured concentration of prostaglandin F2, Mean", "setting": "prostaglandin F2; 48 h", "result": 313.63, "unit": "pg/mL"},
      {"measurement": "The measured concentration of prostaglandin F2, Mean", "setting": "prostaglandin F2; 72 h", "result": 926.48, "unit": "pg/mL"},
      {"measurement": "The measured concentration of prostaglandin E2", "setting": "prostaglandin E2; [1]", "result": 210.67, "unit": "pg/mL"},
      {"measurement": "The measured concentration of prostaglandin E2", "setting": "prostaglandin E2; [2]", "result": 450.48, "unit": "pg/mL"},
      {"measurement": "The measured concentration of prostaglandin E2", "setting": "prostaglandin E2; [3]", "result": 322.13, "unit": "pg/mL"},
      {"measurement": "The measured concentration of prostaglandin E2", "setting": "prostaglandin E2; [4]", "result": 408.15, "unit": "pg/mL"},
      {"measurement": "The measured concentration of prostaglandin E2", "setting": "prostaglandin E2; [5]", "result": 214.73, "unit": "pg/mL"},
      {"measurement": "The measured concentration of prostaglandin E2", "setting": "prostaglandin E2; [6]", "result": 822.21, "unit": "pg/mL"},
      {"measurement": "The measured concentration of prostaglandin E2", "setting": "prostaglandin E2; [7]", "result": 168.84, "unit": "pg/mL"},
      {"measurement": "The measured concentration of prostaglandin E2", "setting": "prostaglandin E2; [8]", "result": 521.78, "unit": "pg/mL"},
      {"measurement": "The measured concentration of prostaglandin E2", "setting": "prostaglandin E2; [9]", "result": 670.73, "unit": "pg/mL"},
      {"measurement": "The measured concentration of prostaglandin E2", "setting": "prostaglandin E2; [10]", "result": 2735.20, "unit": "pg/mL"},
      {"measurement": "The measured concentration of prostaglandin E2", "setting": "prostaglandin E2; [11]", "result": 276.35, "unit": "pg/mL"},
      {"measurement": "The measured concentration of prostaglandin E2", "setting": "prostaglandin E2; [12]", "result": 663.03, "unit": "pg/mL"},
      {"measurement": "Effect on prostaglandin E2 content (in words)", "setting": "prostaglandin E2; cynomolgus monkeys, after administration (0.58 mg/kg), fluctuating increase at 24 h", "result": "decreased"},
      {"measurement": "The measured concentration of prostaglandin E2, Mean", "setting": "prostaglandin E2; 6 h", "result": 365.38, "unit": "pg/mL"},
      {"measurement": "The measured concentration of prostaglandin E2, Mean", "setting": "prostaglandin E2; 24 h", "result": 1335.97, "unit": "pg/mL"},
      {"measurement": "The measured concentration of prostaglandin E2, Mean", "setting": "prostaglandin E2; 48 h", "result": 255.78, "unit": "pg/mL"},
      {"measurement": "The measured concentration of prostaglandin E2, Mean", "setting": "prostaglandin E2; 72 h", "result": 530.99, "unit": "pg/mL"},
      {"measurement": "AKR1C3 activity %", "setting": "AKR1C3; [13]", "result": 3.9, "unit": "%"},
      {"measurement": "activity at 5 µM", "setting": "AKR1C3; [13]", "result": 3.9, "unit": "%"},
      {"measurement": "AKR1C3 activity %", "setting": "AKR1C3; [14]", "result": 9.2, "unit": "%"},
      {"measurement": "activity at 5 µM", "setting": "AKR1C3; [14]", "result": 9.2, "unit": "%"},
      {"measurement": "Peak area ratio of reduced progesterone to propranolol", "setting": "AKR1C3; pre-incubation 30 min, negative control 0.1506", "result": 0.0074},
      {"measurement": "Peak area ratio of reduced progesterone to propranolol", "setting": "AKR1C3; pre-incubation 60 min, negative control 0.1343", "result": 0.0137}
    ]}
  ]
}
